The target in experiment [1] is T1, cGMP-dependent protein kinase 1 (Homo sapiens) (UniProt Q13976).
T1 sequence (whole entry): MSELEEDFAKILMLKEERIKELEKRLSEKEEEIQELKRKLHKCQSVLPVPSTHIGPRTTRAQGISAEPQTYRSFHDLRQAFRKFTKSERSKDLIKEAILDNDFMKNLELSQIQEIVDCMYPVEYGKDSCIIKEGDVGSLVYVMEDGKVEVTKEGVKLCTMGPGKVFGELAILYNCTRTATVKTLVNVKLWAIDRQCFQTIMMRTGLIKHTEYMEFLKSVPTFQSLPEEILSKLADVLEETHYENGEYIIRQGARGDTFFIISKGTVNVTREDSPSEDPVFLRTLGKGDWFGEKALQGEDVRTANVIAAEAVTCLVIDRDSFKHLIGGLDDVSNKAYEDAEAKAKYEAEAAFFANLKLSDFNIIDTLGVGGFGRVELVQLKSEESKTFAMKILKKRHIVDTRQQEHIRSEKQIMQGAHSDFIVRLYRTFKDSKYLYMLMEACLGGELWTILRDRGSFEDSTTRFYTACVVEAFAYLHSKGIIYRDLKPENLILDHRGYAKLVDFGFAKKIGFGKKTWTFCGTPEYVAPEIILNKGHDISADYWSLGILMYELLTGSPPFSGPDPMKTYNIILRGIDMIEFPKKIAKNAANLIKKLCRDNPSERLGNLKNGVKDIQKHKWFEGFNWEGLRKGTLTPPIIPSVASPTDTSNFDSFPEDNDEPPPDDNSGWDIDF
The experiment is described as follows: Inhibition of human full length PKG-1beta expressed in baculovirus assessed as substrate phosphorylation using fluorescence-labelled peptides as substrate at 420 uM after 90 mins by microfluidic peptide phosphorylation assay.

The target in experiment [2] is Insulin receptor (Homo sapiens) (UniProt P06213). The conditions noted are these: 0.1 uM.
Description: Inhibition of human INSR catalytic domain expressed in baculovirus assessed as substrate phosphorylation using fluorescence-labelled peptides as substrate at 0.1 uM after 90 mins by microfluidic peptide phosphorylation assay
The target of experiment [3] is Ribosomal protein S6 kinase alpha-5 (Homo sapiens) (UniProt O75582). The experiment is described as follows: Inhibition of human full length MSK1 expressed in baculovirus assessed as substrate phosphorylation using fluorescence-labelled peptides as substrate at 0.06 uM after 90 mins by microfluidic peptide phosphorylation assay.
In experiment [4] the target is Protein kinase C theta type (Homo sapiens) (UniProt Q04759). The experiment is described as follows: Inhibition of human truncated PKC theta expressed in baculovirus assessed as substrate phosphorylation using fluorescence-labelled peptides as substrate at 0.06 uM after 90 mins by microfluidic peptide phosphorylation assay.
Experiment [5] concerns the target T2, Serine/threonine-protein kinase Nek2 (Homo sapiens) (UniProt P51955).
T2 sequence (whole entry): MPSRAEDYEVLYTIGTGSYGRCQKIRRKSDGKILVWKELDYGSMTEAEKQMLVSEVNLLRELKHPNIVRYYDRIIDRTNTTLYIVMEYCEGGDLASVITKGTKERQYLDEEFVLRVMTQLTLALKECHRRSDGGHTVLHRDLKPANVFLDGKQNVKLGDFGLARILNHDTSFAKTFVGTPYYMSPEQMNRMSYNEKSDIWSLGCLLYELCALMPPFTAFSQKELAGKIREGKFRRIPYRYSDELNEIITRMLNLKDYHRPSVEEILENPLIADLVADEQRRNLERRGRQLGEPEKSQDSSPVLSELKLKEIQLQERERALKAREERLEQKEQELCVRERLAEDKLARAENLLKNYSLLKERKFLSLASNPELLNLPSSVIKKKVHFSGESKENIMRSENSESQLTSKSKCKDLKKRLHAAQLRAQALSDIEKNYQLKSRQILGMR
The experiment is described as follows: Inhibition of human full length NEK2 expressed in baculovirus assessed as substrate phosphorylation using fluorescence-labelled peptides as substrate at 0.2 uM after 90 mins by microfluidic peptide phosphorylation assay.

Experiment [6] deals with Dual specificity tyrosine-phosphorylation-regulated kinase 1A (Rattus norvegicus) (UniProt Q63470). Nature of the experiment: Inhibition of rat full length DYRK1a expressed in Escherichia coli cell assessed as substrate phosphorylation using fluorescence-labelled peptides as substrate at 0.2 uM after 90 mins by microfluidic peptide phosphorylation assay.
The target in experiment [7] is RAF proto-oncogene serine/threonine-protein kinase (Homo sapiens) (UniProt P04049). The experiment is described as follows: Inhibition of human truncated c-Raf expressed in baculovirus assessed as substrate phosphorylation using fluorescence-labelled peptides as substrate at 70 uM after 90 mins by microfluidic peptide phosphorylation assay.
The target in experiment [8] is T3, Serine/threonine-protein kinase D2 (Homo sapiens) (UniProt Q9BZL6).
T3 sequence (whole entry): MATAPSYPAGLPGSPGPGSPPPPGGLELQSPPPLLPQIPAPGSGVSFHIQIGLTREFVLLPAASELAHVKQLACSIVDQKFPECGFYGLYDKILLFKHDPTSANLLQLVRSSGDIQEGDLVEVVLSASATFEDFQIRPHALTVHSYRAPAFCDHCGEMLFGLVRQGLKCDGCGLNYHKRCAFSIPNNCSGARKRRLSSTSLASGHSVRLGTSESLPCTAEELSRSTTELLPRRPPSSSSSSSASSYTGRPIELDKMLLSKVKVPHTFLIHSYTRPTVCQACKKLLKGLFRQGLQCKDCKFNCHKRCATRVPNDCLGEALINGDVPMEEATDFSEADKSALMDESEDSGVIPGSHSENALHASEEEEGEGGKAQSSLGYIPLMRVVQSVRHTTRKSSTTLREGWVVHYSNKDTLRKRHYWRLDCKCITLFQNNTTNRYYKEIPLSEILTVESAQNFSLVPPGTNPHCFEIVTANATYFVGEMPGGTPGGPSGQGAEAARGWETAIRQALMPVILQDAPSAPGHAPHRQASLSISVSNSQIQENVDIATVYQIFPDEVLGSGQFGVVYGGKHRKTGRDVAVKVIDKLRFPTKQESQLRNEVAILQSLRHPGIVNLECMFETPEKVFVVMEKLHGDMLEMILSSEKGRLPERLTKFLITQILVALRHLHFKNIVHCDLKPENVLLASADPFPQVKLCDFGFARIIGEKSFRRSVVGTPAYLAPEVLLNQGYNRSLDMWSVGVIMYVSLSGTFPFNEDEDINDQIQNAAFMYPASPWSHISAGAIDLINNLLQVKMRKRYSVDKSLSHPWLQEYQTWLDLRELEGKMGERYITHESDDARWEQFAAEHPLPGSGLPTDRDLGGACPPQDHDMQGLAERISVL
The experiment is described as follows: Inhibition of human full length PKD2 expressed in baculovirus assessed as substrate phosphorylation using fluorescence-labelled peptides as substrate at 70 uM after 90 mins by microfluidic peptide phosphorylation assay.

Results on five compounds are retold here after ChEMBL document CHEMBL3132769, “Fragment growing to retain or alter the selectivity of anchored kinase hinge-binding fragments” (Medchemcomm, 2014).

Sequence of RAF proto-oncogene serine/threonine-protein kinase (Homo sapiens) (P04049 whole entry, the tested form may be a part): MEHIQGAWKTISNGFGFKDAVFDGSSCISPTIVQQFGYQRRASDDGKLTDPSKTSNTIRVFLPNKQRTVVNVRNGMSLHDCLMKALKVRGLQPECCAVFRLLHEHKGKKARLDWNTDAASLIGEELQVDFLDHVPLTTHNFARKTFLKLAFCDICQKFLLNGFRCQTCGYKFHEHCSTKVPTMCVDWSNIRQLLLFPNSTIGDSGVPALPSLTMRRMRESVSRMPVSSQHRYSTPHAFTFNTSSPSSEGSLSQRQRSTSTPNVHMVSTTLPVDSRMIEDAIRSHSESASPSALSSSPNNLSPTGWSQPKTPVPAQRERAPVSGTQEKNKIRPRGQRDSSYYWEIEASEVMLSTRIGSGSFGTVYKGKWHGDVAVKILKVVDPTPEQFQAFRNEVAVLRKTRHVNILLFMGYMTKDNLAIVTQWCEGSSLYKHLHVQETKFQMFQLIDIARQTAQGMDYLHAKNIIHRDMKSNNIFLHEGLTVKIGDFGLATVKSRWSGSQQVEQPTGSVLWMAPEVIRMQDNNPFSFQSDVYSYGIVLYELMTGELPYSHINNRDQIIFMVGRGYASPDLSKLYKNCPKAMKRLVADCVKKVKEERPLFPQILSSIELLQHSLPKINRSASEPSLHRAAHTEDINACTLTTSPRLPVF
Sequence of Protein kinase C theta type (Homo sapiens) (Q04759 whole entry, looked up, the tested form may be a part): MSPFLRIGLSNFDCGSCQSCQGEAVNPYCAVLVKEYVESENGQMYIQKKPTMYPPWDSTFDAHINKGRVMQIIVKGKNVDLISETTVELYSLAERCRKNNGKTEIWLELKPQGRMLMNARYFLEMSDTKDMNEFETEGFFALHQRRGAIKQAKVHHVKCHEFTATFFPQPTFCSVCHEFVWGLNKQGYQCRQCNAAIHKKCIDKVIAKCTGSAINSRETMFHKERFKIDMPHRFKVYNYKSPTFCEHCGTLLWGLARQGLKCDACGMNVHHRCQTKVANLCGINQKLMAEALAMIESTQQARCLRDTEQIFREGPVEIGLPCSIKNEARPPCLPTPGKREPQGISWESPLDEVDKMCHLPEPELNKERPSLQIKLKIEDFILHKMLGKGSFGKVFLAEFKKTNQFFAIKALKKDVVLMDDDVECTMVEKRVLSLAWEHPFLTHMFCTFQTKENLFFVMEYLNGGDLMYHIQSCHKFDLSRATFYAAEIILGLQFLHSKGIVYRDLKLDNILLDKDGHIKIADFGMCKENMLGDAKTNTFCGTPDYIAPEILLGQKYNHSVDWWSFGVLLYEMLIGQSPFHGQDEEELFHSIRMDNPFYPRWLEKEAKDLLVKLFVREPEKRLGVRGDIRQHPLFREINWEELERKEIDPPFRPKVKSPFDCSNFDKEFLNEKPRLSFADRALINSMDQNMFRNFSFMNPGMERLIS
Sequence of Ribosomal protein S6 kinase alpha-5 (Homo sapiens) (O75582 whole entry, looked up, the tested form may be a part): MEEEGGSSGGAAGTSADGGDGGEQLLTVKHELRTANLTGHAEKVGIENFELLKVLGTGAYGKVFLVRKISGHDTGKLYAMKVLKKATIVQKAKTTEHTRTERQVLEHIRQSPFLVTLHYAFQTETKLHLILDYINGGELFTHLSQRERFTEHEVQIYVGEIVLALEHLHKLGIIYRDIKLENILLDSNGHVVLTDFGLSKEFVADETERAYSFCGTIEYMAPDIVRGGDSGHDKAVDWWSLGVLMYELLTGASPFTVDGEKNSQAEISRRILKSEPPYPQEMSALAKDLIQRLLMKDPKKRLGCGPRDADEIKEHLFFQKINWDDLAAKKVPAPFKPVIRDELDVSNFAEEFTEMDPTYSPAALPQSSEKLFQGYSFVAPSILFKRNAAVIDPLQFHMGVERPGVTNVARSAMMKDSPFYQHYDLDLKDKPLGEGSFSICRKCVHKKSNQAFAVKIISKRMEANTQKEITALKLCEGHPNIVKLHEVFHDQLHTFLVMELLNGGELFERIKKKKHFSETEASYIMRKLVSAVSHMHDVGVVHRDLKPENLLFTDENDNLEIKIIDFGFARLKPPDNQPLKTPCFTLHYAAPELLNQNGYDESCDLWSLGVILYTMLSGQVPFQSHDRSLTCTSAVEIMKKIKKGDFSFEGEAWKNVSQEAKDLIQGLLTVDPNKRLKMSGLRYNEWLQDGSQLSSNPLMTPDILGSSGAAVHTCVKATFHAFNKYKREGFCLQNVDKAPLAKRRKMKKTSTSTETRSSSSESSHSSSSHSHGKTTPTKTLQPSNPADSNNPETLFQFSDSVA

A word on the inhibition: it is how much of the control response was suppressed. Turning to `c1nc(N2CCOCC2)c2nc[nH]c2n1`, the inhibition in experiment [1] came out at 95.5%.
In experiment [2], `C[C@H](CN(C)C)Oc1nc(Nc2cc3cccc(Cl)c3cn2)cnc1C#N` yielded an inhibition of 0%.
Turning to `NC1(Cc2ccc(Cl)cc2)CCN(c2ncnc3[nH]ccc23)CC1`, the inhibition came to 5.5% in experiment [3] and 4.5% in experiment [4].
In the case of `Clc1ccc(C2(c3ccc(-c4ncnc5[nH]cnc45)cc3)CCNCC2)cc1`, the values for the inhibition in experiment [5] and in experiment [6] were 4.5% and 11%, respectively.
Take `CNCc1ccc(-c2ncnc3[nH]cnc23)cc1`: the inhibition was 39.5% in experiment [7] and 77.5% in experiment [8].
